{"source": "patent US20110046056A1", "about": "“APOA-1 PEPTIDE MIMETICS” (priority 2007, published 2011)", "target": "T1, ABCA1 cholesterol transporter protein (Mus musculus, UniProt P41233)", "T1 construct": "endogenous in cells", "T1 sequence (P41233 whole entry)": "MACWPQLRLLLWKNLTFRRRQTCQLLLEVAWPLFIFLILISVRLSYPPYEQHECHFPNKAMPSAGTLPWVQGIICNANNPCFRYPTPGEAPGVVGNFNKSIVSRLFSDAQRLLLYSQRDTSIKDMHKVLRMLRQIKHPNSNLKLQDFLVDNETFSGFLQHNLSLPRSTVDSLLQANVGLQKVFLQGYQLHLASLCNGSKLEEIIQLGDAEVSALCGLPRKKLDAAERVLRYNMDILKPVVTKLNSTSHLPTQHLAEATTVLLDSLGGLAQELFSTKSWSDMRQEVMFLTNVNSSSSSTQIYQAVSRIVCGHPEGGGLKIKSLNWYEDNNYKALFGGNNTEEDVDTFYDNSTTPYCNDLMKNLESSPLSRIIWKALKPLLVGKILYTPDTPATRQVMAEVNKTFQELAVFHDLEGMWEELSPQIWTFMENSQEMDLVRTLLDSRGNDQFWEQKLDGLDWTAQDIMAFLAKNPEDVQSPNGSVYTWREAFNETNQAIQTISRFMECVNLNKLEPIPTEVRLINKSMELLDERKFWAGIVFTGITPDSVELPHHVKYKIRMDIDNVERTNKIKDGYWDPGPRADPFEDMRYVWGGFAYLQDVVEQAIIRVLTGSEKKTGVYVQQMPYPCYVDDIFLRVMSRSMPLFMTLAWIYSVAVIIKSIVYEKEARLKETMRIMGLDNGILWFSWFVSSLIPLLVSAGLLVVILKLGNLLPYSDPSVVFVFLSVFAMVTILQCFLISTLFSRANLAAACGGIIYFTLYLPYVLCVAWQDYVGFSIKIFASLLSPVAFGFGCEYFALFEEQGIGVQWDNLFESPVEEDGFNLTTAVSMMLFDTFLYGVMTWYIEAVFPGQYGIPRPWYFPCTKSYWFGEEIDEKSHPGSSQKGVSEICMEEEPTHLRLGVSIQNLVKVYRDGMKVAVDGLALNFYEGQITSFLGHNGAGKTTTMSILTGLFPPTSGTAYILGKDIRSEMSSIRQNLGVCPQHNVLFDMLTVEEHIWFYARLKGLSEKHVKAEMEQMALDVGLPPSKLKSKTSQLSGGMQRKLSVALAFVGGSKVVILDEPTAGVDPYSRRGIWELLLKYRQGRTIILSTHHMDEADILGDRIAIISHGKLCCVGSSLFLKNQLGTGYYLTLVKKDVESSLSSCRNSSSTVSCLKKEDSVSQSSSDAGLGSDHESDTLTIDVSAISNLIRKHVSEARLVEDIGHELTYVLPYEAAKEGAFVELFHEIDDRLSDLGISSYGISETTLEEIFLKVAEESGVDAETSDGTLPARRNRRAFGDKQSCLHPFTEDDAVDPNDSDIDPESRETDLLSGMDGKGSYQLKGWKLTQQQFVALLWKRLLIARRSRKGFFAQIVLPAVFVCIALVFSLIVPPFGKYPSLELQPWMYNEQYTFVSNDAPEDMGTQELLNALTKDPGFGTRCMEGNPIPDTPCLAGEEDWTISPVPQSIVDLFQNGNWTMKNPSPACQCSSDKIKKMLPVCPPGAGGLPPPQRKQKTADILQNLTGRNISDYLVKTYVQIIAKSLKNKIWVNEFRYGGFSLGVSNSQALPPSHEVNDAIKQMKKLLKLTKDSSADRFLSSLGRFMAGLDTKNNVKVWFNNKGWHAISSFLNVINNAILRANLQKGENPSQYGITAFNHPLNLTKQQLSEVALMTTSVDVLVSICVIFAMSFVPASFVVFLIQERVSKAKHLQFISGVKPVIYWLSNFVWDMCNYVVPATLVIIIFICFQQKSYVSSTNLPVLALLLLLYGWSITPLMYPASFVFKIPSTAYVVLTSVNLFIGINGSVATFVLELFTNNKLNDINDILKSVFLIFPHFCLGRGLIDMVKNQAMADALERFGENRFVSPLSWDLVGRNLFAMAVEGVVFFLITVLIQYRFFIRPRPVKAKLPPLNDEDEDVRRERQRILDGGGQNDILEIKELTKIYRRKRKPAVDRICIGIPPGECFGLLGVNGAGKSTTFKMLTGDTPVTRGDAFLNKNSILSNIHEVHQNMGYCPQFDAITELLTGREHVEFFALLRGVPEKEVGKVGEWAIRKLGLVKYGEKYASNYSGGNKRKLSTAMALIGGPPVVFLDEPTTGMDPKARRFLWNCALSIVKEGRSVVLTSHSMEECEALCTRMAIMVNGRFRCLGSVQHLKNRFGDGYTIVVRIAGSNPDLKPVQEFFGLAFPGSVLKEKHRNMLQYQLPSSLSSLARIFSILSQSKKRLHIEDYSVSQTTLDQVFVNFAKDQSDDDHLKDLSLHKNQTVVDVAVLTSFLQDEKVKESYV", "experiment": "ABCA1-dependent cholesterol efflux from RAW mouse macrophage cells (in vitro RCT assay)", "assay_type": "cell-based", "source_text": "Peptides of the present invention were designed based on amphipathic properties and their abilities to solubilize phospholipids and promote cholesterol efflux. The most direct functional measurement of efficacy for the ApoA-1 peptide mimetic is its capacity to improve the efflux of cholesterol from the cell. The RAW and J774 cell lines are reliable mouse macrophage cell lines frequently used in the art for this purpose. […] The RAW cell line is preferred and recited in the description below.\nIn the present assay, the RAW cells are plated at 1.5×10^5 cells/200 μl/well/48-well plate in DMEM complete medium (with 10% FBS from INVITROGEN and 1% penicillin-streptomycin-glutamine from GIBCO) and ^3H-cholesterol at 5 μCi/ml. After 24 hours incubation in a moist 37° C. atmosphere with 5% CO2, the spent medium is removed, the cells are washed once with serum-free DMEM (0.1% fatty acid free bovine serum albumin replaces the FBS), and fresh serum-free medium (200 μl) is added to each well. After overnight incubation in the serum-free medium to allow the cellular cholesterol pools to equilibrate, the spent medium is removed, and fresh serum-free medium is added with/without CPT-cAMP (150 μM final). Eight-point serial titrations of the peptide/s being tested are added at this time (duplicate titrations in plain medium without cAMP and duplicate titrations in medium containing cAMP).\nAfter 24 hours incubation in the various conditions, the medium is harvested from each well and 50 μl aliquots are counted. The cells are then lysed by adding 500 μl of HEPES/Triton lysis buffer to each well. The lysis is facilitated by freezing and thawing once. After thawing, the lysates are mixed well and 50 μl aliquots are counted.\nThe percent efflux of each peptide in each medium condition (±cAMP) is calculated by dividing the total counts in the medium by the sum of the total counts in the medium and lysate. The percent efflux seen with plain medium is subtracted from the percent efflux seen with the cAMP-stimulated efflux to yield the reported ABCA1-stimulated values. EC50 values are determined using PRISM software (Table 2).", "key": {"[1]": {"conditions": "read-out: EC50 in the cholesterol efflux assay (RCT in vitro assay)"}, "[2]": {"conditions": "read-out: ABCA1-DEPENDENT CHOLESTEROL EFFLUX EC50"}}, "note": "pEC50: −log10 of the molar value. Read-outs that look alike come from different tables or passages of the source. *1 amine or outer side, *2 acyl side, *3 side chain or, on linkers, in order; H or OH if unused. Where a SMILES comes first, the peptide text is derived from it. Bridges are numbered along the chain shown (N, C = ends). Where no end group is shown, it is not given here. [ ]: non-standard residue; d: D form. S6H = (2S)-2-aminooct-7-enoic acid, C=CCCCC[C@H](N[*:1])C(=O)[*:2]; dNle(6-ylidene) = O=C([C@@H](CCCC=[*:3])N[*:1])[*:2]; dGly(6-heptenyl) = C=CCCCCC[C@@H](N)C(=O)O; Ala(5-hexenyl) = C=CCCCCC[C@H](N)C(=O)O; dNle(6-vinyl) = C=CCCCC[C@@H](N)C(=O)O; X6 = CCCCCCC[C@H](N[*:1])C(=O)[*:2]"}
{"compound": "CCCCCCC[C@H](NC(=O)[C@H](CCC(=O)O)NC(=O)[C@H](CC(N)=O)NC(=O)[C@H](CC(C)C)NC(=O)[C@H](CCCCN)NC(=O)[C@H](CCC(=O)O)NC(=O)[C@H](CCCNC(=N)N)NC(=O)[C@H](CCCCCCC)NC(=O)[C@H](CCC(=O)O)NC(=O)[C@H](CC(=O)O)NC(=O)[C@H](CC(C)C)NC(=O)[C@@H](NC(=O)[C@@H]1CCCN1C(C)=O)C(C)C)C(=O)N[C@@H](CC(C)C)C(=O)N[C@@H](CCC(=O)O)C(=O)N[C@@H](C)C(=O)N[C@@H](CC(C)C)C(=O)N[C@@H](CCCCN)C(=O)N[C@@H](CCC(N)=O)C(=O)N[C@@H](CCCCN)C(=O)N[C@@H](CC(C)C)C(=O)N[C@@H](CCCCN)C(N)=O", "note": "[SEQ ID NO 50, PVLDES7H3REKLNES7H3LEALKQKLK] (Ac-PVLDE[X6]REKLNE[X6]LEALKQKLK-NH2; C-terminus assumed)", "values": [{"measurement": "pEC50", "setting": "[1]", "result": 6.52}]}
{"compound": "C=CCCC[C@@H](NC(=O)[C@H](CCC(=O)O)NC(=O)[C@H](CC(N)=O)NC(=O)[C@H](CC(C)C)NC(=O)[C@@H](CCCC=C)NC(=O)[C@H](CCC(=O)O)NC(=O)[C@H](CCCNC(=N)N)NC(=O)[C@H](Cc1ccccc1)NC(=O)[C@H](CCC(=O)O)NC(=O)[C@H](CC(=O)O)NC(=O)[C@H](CC(C)C)NC(=O)[C@@H](NC(=O)[C@@H]1CCCN1C(C)=O)C(C)C)C(=O)N[C@@H](CC(C)C)C(=O)N[C@@H](CCC(=O)O)C(=O)N[C@@H](C)C(=O)N[C@@H](CC(C)C)C(=O)N[C@@H](CCCCN)C(=O)N[C@@H](CCC(N)=O)C(=O)N[C@@H](CCCCN)C(=O)N[C@@H](CC(C)C)C(=O)N[C@@H](CCCCN)C(N)=O", "note": "[compound 9] (Ac-PVLDEFRE[dNle(6-ylidene)]LNE[dNle(6-ylidene)]LEALKQKLK-NH2; C-terminus assumed)", "values": [{"measurement": "pEC50", "setting": "[2]", "result": 4.34}]}
{"compound": "C=CCCCCC[C@H](NC(=O)[C@H](CCC(=O)O)NC(=O)[C@H](CC(=O)O)NC(=O)[C@H](CC(C)C)NC(=O)[C@@H](NC(=O)[C@@H]1CCCN1C(C)=O)C(C)C)C(=O)N[C@@H](CCCNC(=N)N)C(=O)N[C@@H](CCC(=O)O)C(=O)N[C@@H](CCCCN)C(=O)N[C@@H](CC(C)C)C(=O)N[C@@H](CC(N)=O)C(=O)N[C@@H](CCC(=O)O)C(=O)N[C@H](CCCCC=C)C(=O)N[C@@H](CC(C)C)C(=O)N[C@@H](CCC(=O)O)C(=O)N[C@@H](C)C(=O)N[C@@H](CC(C)C)C(=O)N[C@@H](CCCCN)C(=O)N[C@@H](CCC(N)=O)C(=O)N[C@@H](CCCCN)C(=O)N[C@@H](CC(C)C)C(=O)N[C@@H](CCCCN)C(N)=O", "note": "[compound 10] (Ac-PVLDE[Ala(5-hexenyl)]REKLNE[dNle(6-vinyl)]LEALKQKLK-NH2; C-terminus assumed)", "values": [{"measurement": "pEC50", "setting": "[2]", "result": 5.89}]}
{"compound": "CC(=O)N1CCC[C@H]1C(=O)N[C@H](C(=O)N[C@@H](CC(C)C)C(=O)N[C@@H](CC(=O)O)C(=O)N[C@@H](CCC(=O)O)C(=O)N[C@@H](Cc1ccccc1)C(=O)N[C@@H](CCCNC(=N)N)C(=O)N[C@@H](CCC(=O)O)C(=O)N[C@@H]1CCCC=CCCC[C@H](C(=O)N[C@@H](CC(C)C)C(=O)N[C@@H](CCC(=O)O)C(=O)N[C@@H](C)C(=O)N[C@@H](CC(C)C)C(=O)N[C@@H](CCCCN)C(=O)N[C@@H](CCC(N)=O)C(=O)N[C@@H](CCCCN)C(=O)N[C@@H](CC(C)C)C(=O)N[C@@H](CCCCN)C(N)=O)NC(=O)[C@H](CCC(=O)O)NC(=O)[C@H](CC(N)=O)NC(=O)[C@H](CC(C)C)NC1=O)C(C)C", "note": "[compound 12] (Ac-PVLDEFRE[dNle(6-ylidene)]LNE[dNle(6-ylidene)]LEALKQKLK-NH2; staple 9-13; C-terminus assumed)", "values": [{"measurement": "pEC50", "setting": "[2]", "result": 5.00}]}
{"compound": "Ac-PVLDEFREKLNE[Ala(5-hexenyl)]LEALKQKLKPVLDEFREKLNE[Ala(5-hexenyl)]LEALKQKLK-NH2 (C-terminus assumed) [SEQ ID NO 63]", "values": [{"measurement": "pEC50", "setting": "[1]", "result": 4.39}]}
{"compound": "PR7HLDEFREKLNEELEALKQKLK (Ac-P[dGly(6-heptenyl)]LDEFREKLNEELEALKQKLK; not fully specified (C-terminus)) [SEQ ID NO 20]", "values": [{"measurement": "activity in the cholesterol efflux / in vitro RCT assay, in words", "result": "only slightly active"}]}
{"compound": "PS6HLDEFREKLNEELEALKQKLK (Ac-P[S6H]LDEFREKLNEELEALKQKLK; not fully specified (C-terminus)) [SEQ ID NO 23]", "values": [{"measurement": "activity in the cholesterol efflux / in vitro RCT assay, in words", "result": "only slightly active"}]}
